Drawing on patent US7713994B2 (Wyeth LLC, priority 2005, dated 2010), this text covers IC50 for 14 molecules.

The target of one test is T1, cyclin D1/cdk 4 enzyme (Homo sapiens, UniProt P11802).
T1 construct: made in house; host or cells: Sf9 insect cells, recombinant baculovirus
The experiment in a line: CDK4 ELISA kinase assay (phospho-Rb ser 795 detection). Type of test: biochemical. Conditions: In Vitro Enzyme Assays, 200 μM ATP, read-out: CDK4 IC50. A digest of the protocol:
(§1)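 Sf9-derived cyclin/CDK, 200 μM ATP, immobilized GST-Rb; 30° C/1 h. Detection: phospho-Ser795 Ab, HRP, TMB, OD450.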
In general terms: An ELISA detects its analyte on a solid surface through an enzyme-linked reagent.

The target of the next test is T2, cyclin E/CDK2 enzyme (Homo sapiens, UniProt P24941).
T2 construct: made in house; host or cells: Sf9 insect cells, recombinant baculovirus
In words: CDK2 ELISA kinase assay (phospho-Rb ser 795 detection). The test is classed as biochemical. Conditions: In Vitro Enzyme Assays, read-out: CDK2 IC50. The essentials:
as §1

In a further test the target is T3, cyclin B/CDK1 enzyme (Homo sapiens, UniProt P06493).
T3 construct: purchased New England BioLabs; host or cells: Sf9 insect cells, recombinant baculovirus
T3 sequence (P06493 whole entry): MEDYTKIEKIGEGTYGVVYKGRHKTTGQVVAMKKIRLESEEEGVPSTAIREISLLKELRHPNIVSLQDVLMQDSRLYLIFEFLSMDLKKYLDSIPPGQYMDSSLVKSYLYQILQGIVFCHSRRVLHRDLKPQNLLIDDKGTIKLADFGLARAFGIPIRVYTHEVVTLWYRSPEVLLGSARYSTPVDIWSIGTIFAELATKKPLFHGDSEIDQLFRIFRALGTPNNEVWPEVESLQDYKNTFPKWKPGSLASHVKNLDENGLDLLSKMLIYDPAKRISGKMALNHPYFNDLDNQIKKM
T3 sequence (P14635 whole entry partner): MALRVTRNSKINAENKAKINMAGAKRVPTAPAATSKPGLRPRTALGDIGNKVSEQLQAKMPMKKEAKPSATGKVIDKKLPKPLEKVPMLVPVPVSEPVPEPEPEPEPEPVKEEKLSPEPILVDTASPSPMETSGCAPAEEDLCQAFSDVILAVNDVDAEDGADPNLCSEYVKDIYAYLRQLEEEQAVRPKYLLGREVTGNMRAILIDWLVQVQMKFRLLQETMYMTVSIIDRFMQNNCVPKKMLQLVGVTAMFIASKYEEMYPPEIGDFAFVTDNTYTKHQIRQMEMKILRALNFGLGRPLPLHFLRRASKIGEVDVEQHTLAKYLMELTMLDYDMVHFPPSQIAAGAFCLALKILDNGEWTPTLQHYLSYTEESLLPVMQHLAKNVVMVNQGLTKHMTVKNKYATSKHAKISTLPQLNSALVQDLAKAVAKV
In words: CDK1 ELISA kinase assay (phospho-Rb ser 795 detection). Type of test: biochemical. Conditions: In Vitro Enzyme Assays, read-out: CDK1 IC50. The essentials: as §1

Another test has as its system BT474. The experiment in a line: Cytotoxicity assay (SRB), BT474. Type of test: cell-based. Conditions: BT474 cells, SRB, 6 days, read-out: In Vitro Cellular Activity IC50 BT474. A digest of the protocol:
(§2)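 Cells seeded overnight at 37 °C, 7% CO2 (BT474 12000, HCT-116 4000, LoVo and MCF-7 6000 cells/well) in RPMI 1640 with 5% FBS, then exposed to compound dilutions for 3 days (BT474 6 days). Survival versus untreated controls by TCA fixation and SRB staining, absorbance 540 nm.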

In another test the test system is HCT-116. In words: Cytotoxicity assay (SRB), HCT-116. Type of test: cell-based. Conditions: HCT116 cells, SRB, three days, read-out: In Vitro Cellular Activity IC50 HCT116. A digest of the protocol:
as §2

Another test has as its system LoVo. The experiment in a line: Cytotoxicity assay (SRB), LoVo. Type of test: cell-based. Conditions: LoVo cells, SRB, three days, read-out: In Vitro Cellular Activity IC50 LOVO. The essentials:
as §2

A further test concerns MCF-7. In words: Cytotoxicity assay (SRB), MCF-7. Type of test: cell-based. Conditions: MCF-7 cells, SRB, three days, read-out: In Vitro Cellular Activity IC50 MCF-7. The essentials: as §2

SMILES strings stand for the structures. Like-named read-outs stand apart in the source and are kept apart here.

Usually IC50 stands for the point on the concentration scale where inhibition reaches its midpoint.

T1 sequence (P11802 whole entry, species assumed): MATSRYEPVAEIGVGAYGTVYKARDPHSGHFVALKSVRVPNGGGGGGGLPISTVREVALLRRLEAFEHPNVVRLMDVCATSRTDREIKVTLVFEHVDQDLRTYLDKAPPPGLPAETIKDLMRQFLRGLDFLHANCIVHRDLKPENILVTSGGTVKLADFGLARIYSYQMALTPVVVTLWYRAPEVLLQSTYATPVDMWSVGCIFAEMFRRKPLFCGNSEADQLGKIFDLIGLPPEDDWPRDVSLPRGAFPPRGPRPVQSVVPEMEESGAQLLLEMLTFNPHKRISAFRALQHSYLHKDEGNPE
T1 sequence (P24385 whole entry partner, species assumed): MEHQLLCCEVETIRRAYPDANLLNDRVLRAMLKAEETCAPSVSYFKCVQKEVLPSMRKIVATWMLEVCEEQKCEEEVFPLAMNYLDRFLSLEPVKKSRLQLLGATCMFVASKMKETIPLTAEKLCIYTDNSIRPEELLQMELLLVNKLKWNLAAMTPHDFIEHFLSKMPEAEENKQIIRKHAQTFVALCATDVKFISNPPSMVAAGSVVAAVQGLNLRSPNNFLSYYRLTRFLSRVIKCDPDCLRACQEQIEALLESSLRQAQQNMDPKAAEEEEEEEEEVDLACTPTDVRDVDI

As to `CCCOc1cc(O)cc(CN/C=C2\C(=O)NC(=O)c3ccc(Br)cc32)c1` [Example 195], the IC50 was 2 µM on cyclin D1/cdk 4 enzyme; > 50 µM on cyclin E/CDK2 enzyme; > 50 µM at cyclin B/CDK1 enzyme; 17 µM with BT474 (Homo sapiens, BT-474, 144 h); 6.9 µM in the test with HCT-116 (Homo sapiens, HCT-116, 72 h); 37 µM with LoVo (Homo sapiens, LoVo, 72 h). The IC50 with MCF-7 (Homo sapiens, MCF7, 72 h) was found to be 14 µM.

`CN1CCN(c2ccc(N/C=C3\C(=O)NC(=O)c4ccc(NC(=O)Cc5cccs5)cc43)cc2)CC1` [Example 198, 1,2,3,4-Tetrahydroisoquinolin-6-yl]-2-thien-2-ylacetamide ′N-[(4Z)-4-({[4-(4-methylpiperazin-1-yl)phenyl]amino}methylene)-1,3-dioxo]: the IC50 on cyclin D1/cdk 4 enzyme came to 3.1 µM; on cyclin E/CDK2 enzyme, 22.1 µM; on cyclin B/CDK1 enzyme it was 12 µM; in the test on BT474 it was 4.3 µM; with HCT-116, 1.8 µM; in the test on LoVo, 3.7 µM. Also, the IC50 in the test with MCF-7 amounted to 4.3 µM.

For `O=C1NC(=O)c2ccc(-c3ccsc3)cc2/C1=C/NCc1ccc(OC(F)F)c(O)c1` [Example 200, (4Z)-4-({[4-(Difluoromethoxy)-3-hydroxybenzyl]amino}methylene)-6-thien-3-ylisoquinoline-1,3(2H,4H)-dione], the IC50 on cyclin D1/cdk 4 enzyme was 0.009 µM; on cyclin E/CDK2 enzyme it was 26.5 µM; at cyclin B/CDK1 enzyme, > 50 µM; in the test on BT474 (Homo sapiens, BT-474, 144 h), 9.3 µM; in the test with HCT-116 (Homo sapiens, HCT-116, 72 h) it was 5.4 µM; in the test on LoVo (Homo sapiens, LoVo, 72 h), 4.7 µM. Besides, the IC50 in the test with MCF-7 (Homo sapiens, MCF7, 72 h) is 7.2 µM.

`COc1ccc(C(=O)NN/C=C2\C(=O)NC(=O)c3ccc(Br)cc32)cc1O` [Example 202, N′-[(Z)-(6-Bromo-1,3-dioxo-2,3-dihydroisoquinolin-4(1H)-ylidene)methyl]-3-hydroxy-4-methoxybenzohydrazide]: the IC50 is 33.2 µM on cyclin D1/cdk 4 enzyme; > 50 µM at cyclin E/CDK2 enzyme; > 50 µM at cyclin B/CDK1 enzyme; 18 µM in the test with BT474 (Homo sapiens, BT-474, 144 h); > 50 µM in the test on HCT-116 (Homo sapiens, HCT-116, 72 h); > 50 µM in the test with LoVo (Homo sapiens, LoVo, 72 h). Besides, the IC50 with MCF-7 (Homo sapiens, MCF7, 72 h) was > 50 µM.

As for `C[C@@H]1CN(c2ccc(N/C=C3\C(=O)NC(=O)c4ccc(-c5ccc(F)cc5)cc43)cc2)C[C@H](C)N1` [Example 205, (4Z)-4-({[4-(3,5-Dimethylpiperazin-1-yl)phenyl]amino}methylene)-6-(4-fluorophenyl)-isoquinoline-1,3(2H,4H)-dione], the IC50 on cyclin D1/cdk 4 enzyme was 0.44 µM; at cyclin E/CDK2 enzyme it was 48.6 µM; on cyclin B/CDK1 enzyme, 31 µM; with BT474 (Homo sapiens, BT-474, 144 h), 2.4 µM; with HCT-116 (Homo sapiens, HCT-116, 72 h), 1.1 µM; in the test with LoVo (Homo sapiens, LoVo, 72 h), 3.1 µM. Also, the IC50 in the test with MCF-7 (Homo sapiens, MCF7, 72 h) was found to be 1.5 µM.

Consider `C[C@@H]1CN(c2ccc(N/C=C3\C(=O)NC(=O)c4ccc(-c5ccsc5)cc43)cc2)C[C@H](C)N1` [Example 206, (4Z)-4-({[4-(3,5-Dimethylpiperazin-1-yl)phenyl]amino}methylene)-6-thien-3-ylisoquinoline-1,3(2H,4H)-dione], for which the IC50 on cyclin D1/cdk 4 enzyme was 0.16 µM; on cyclin E/CDK2 enzyme, > 50 µM; on cyclin B/CDK1 enzyme, 41.9 µM; with BT474 (Homo sapiens, BT-474, 144 h), 2.9 µM; with HCT-116 (Homo sapiens, HCT-116, 72 h), 1.6 µM; with LoVo (Homo sapiens, LoVo, 72 h), 7.4 µM. The IC50 in the test with MCF-7 (Homo sapiens, MCF7, 72 h) was 3.7 µM.

Consider `C[C@@H]1CN(c2ccc(N/C=C3\C(=O)NC(=O)c4ccc(-c5ccoc5)cc43)cc2)C[C@H](C)N1` [Example 207, (4Z)-4-({[4-(3,5-Dimethylpiperazin-1-yl)phenyl]amino}methylene)-6-(3-furyl)iso-quinoline-1,3(2H,4H)-dione], for which the half-maximal inhibitory concentration (IC50) at cyclin D1/cdk 4 enzyme was 0.2 µM; on cyclin E/CDK2 enzyme it was > 50 µM; on cyclin B/CDK1 enzyme, > 50 µM; with BT474 (Homo sapiens, BT-474, 144 h), 0.79 µM; in the test with HCT-116 (Homo sapiens, HCT-116, 72 h), 1.1 µM; in the test with LoVo (Homo sapiens, LoVo, 72 h), 2.2 µM. The IC50 in the test on MCF-7 (Homo sapiens, MCF7, 72 h) is 0.69 µM.

Turning to `COc1ccc(CN/C=C2\C(=O)NC(=O)c3ccc(-c4ccc(F)cc4)cc32)cc1O` [Example 208, (4Z)-6-(4-Fluorophenyl)-4-{[(3-hydroxy-4-methoxybenzyl)amino]methylene}iso-quinoline-1,3(2H,4H)-dione], the IC50 was 0.009 µM on cyclin D1/cdk 4 enzyme; 30.3 µM on cyclin E/CDK2 enzyme; > 50 µM at cyclin B/CDK1 enzyme; 8.2 µM with BT474 (Homo sapiens, BT-474, 144 h); 5.7 µM with HCT-116 (Homo sapiens, HCT-116, 72 h); 15 µM with LoVo (Homo sapiens, LoVo, 72 h). The 50% inhibitory concentration (IC50) with MCF-7 (Homo sapiens, MCF7, 72 h) came to 3.4 µM.

In the case of `COc1ccc(CN/C=C2\C(=O)NC(=O)c3ccc(-c4cccc(F)c4)cc32)cc1O` [Example 209, (4Z)-6-(3-Fluorophenyl)-4-{[(3-hydroxy-4-methoxybenzyl)amino]methylene}iso-quinoline-1,3(2H,4H)-dione], the IC50 on cyclin D1/cdk 4 enzyme was 0.01 µM; at cyclin E/CDK2 enzyme, 9.2 µM; at cyclin B/CDK1 enzyme, > 50 µM; with BT474 (Homo sapiens, BT-474, 144 h), 9.4 µM; with HCT-116 (Homo sapiens, HCT-116, 72 h), 7 µM; in the test on LoVo (Homo sapiens, LoVo, 72 h), 15 µM. Further, in the test with MCF-7 (Homo sapiens, MCF7, 72 h), the IC50 was found to be 5.4 µM.

Turning to `COc1c(O)cc(CN/C=C2\C(=O)NC(=O)c3ccc(Br)cc32)cc1O` [Example 210, (4Z)-6-Bromo-4-{[(3,5-dihydroxy-4-methoxybenzyl)amino]methylene}isoquinoline-1,3(2H,4H)-dione], the IC50 at cyclin D1/cdk 4 enzyme is 0.008 µM; at cyclin E/CDK2 enzyme, 2.1 µM; on cyclin B/CDK1 enzyme, 18.9 µM; with BT474 (Homo sapiens, BT-474, 144 h), 13 µM; in the test on HCT-116 (Homo sapiens, HCT-116, 72 h) it was 10 µM; in the test on LoVo (Homo sapiens, LoVo, 72 h) it was 10 µM. Moreover, the IC50 in the test with MCF-7 (Homo sapiens, MCF7, 72 h) was found to be 6.6 µM.

Consider `O=C1NC(=O)c2ccc(Br)cc2/C1=C/NCCCCO` [Example 211, (4Z)-6-Bromo-4-{[(4-hydroxybutyl)amino]methylene}isoquinoline-1,3(2H,4H)-dione], for which the IC50 is 2.5 µM at cyclin D1/cdk 4 enzyme; 20.2 µM on cyclin E/CDK2 enzyme; 38 µM at cyclin B/CDK1 enzyme; 29 µM in the test with BT474 (Homo sapiens, BT-474, 144 h); 27 µM with HCT-116 (Homo sapiens, HCT-116, 72 h); 48 µM in the test with LoVo (Homo sapiens, LoVo, 72 h). Besides, in the test on MCF-7 (Homo sapiens, MCF7, 72 h), the half-maximal inhibitory concentration (IC50) came to 24 µM.

In the case of `CCCOc1cc(CN/C=C2\C(=O)NC(=O)c3ccc(Br)cc32)cc(O)c1OCCC` [Example 212, (4Z)-6-Bromo-4-{[(3-hydroxy-4,5-dipropoxybenzyl)amino]methylene}isoquinoline-1,3(2H,4H)-dione], the half-inhibitory concentration (IC50) at cyclin D1/cdk 4 enzyme was 0.77 µM; on cyclin E/CDK2 enzyme, > 50 µM; on cyclin B/CDK1 enzyme, > 50 µM; with BT474 (Homo sapiens, BT-474, 144 h) it was 47 µM; in the test on HCT-116 (Homo sapiens, HCT-116, 72 h), 25 µM; with LoVo (Homo sapiens, LoVo, 72 h), 30 µM. Further, the IC50 with MCF-7 (Homo sapiens, MCF7, 72 h) came out at 37 µM.

Take `CC(=O)Nc1cc(CN/C=C2\C(=O)NC(=O)c3ccc(Br)cc32)cc(O)c1O` [Example 213]: the IC50 at cyclin D1/cdk 4 enzyme is 0.19 µM; on cyclin E/CDK2 enzyme it was > 50 µM; on cyclin B/CDK1 enzyme, > 50 µM; in the test with BT474 (Homo sapiens, BT-474, 144 h) it was > 50 µM; in the test on HCT-116 (Homo sapiens, HCT-116, 72 h), > 50 µM; in the test with LoVo (Homo sapiens, LoVo, 72 h), 48 µM. Further, the IC50 in the test with MCF-7 (Homo sapiens, MCF7, 72 h) is > 50 µM.

Turning to `O=C1NC(=O)c2ccc(Br)cc2/C1=C/Nc1ccc2c(c1)CCN2` [Example 214, (4Z)-6-Bromo-4-[(2,3-dihydro-1H-indol-5-ylamino)methylene]isoquinoline-1,3(2H,4H)-dione], the IC50 at cyclin D1/cdk 4 enzyme was 17.6 µM; on cyclin E/CDK2 enzyme, 6.3 µM; at cyclin B/CDK1 enzyme, > 50 µM; in the test on BT474 (Homo sapiens, BT-474, 144 h) it was 6.8 µM; in the test on HCT-116 (Homo sapiens, HCT-116, 72 h), 39 µM; in the test with LoVo (Homo sapiens, LoVo, 72 h), > 50 µM. Besides, in the test on MCF-7 (Homo sapiens, MCF7, 72 h), the IC50 is 14 µM.
